Measured values: patent publication US4048299A, “Anticaries confectionaries and oral health products” (William Wrigley, Jr. Co., priority 1970, dated 1977)

Legend:
Streptococcus spp. KI-R [1] = assay: Acid production inhibition by aldehydes in product vehicles, broth-tube technique; format: cell-based; settings: 1 to 5 percent aldehyde
[2] = test system: Lactobacillus casei ATCC 4646; assay: as above; format: cell-based; settings: 1 to 5 percent aldehyde
oral microorganisms = assay: Acid production inhibition in vitro (summary); format: cell-based; settings: in words, summary of tables
Experimental: Other in vitro evaluations utilized a broth tube analysis of representative anticaries aldehydes incorporated in the vehicles of this invention against cultures of acid producing microorganisms normally present in the mouth. Standard laboratory procedures were utilized throughout to evaluate the acid production inhibition and growth inhibition over the incubation time of up to 24 hours.

Lactobacillus casei = assay: Acid production inhibition, broth-tube technique; settings: single agent
Description: The data was compiled through well-known broth tube analysis techniques.
(a)Measured by broth-tube technique.

Streptococcus spp. KI-R [3] = assay: Growth inhibition by aldehydes in product vehicles, pour-plate technique; format: cell-based; settings: 1 to 5 percent aldehyde
Method in brief: (§1)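 Aldehydes (1 to 5 percent by weight) were formulated into syrups, candies, mouthwash, toothpaste or toothpowder, added directly or as aqueous extracts to medium without a carbon source mixed 1:1 with filter-sterilized human saliva. Sugar came from the product or added sucrose. Growth over up to 24 hours was read by pour-plate count.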

[4] = test system: Lactobacillus casei ATCC 4646; assay: as above; format: cell-based; settings: 1 to 5 percent aldehyde
Method in brief: as §1

[5] = test system: Mixed human oral microorganisms; assay: as above; format: cell-based; settings: 1 to 5 percent aldehyde
Method in brief: as §1

[6] = in compressed candy tablet, 2 h incubation
[7] = in compressed candy tablet, 5 h incubation
[8] = in compressed candy tablet, 24 h incubation
[9] = in dextrose syrup, 2 h incubation
[10] = in dextrose syrup, 5 h incubation
[11] = in dextrose syrup, 24 h incubation
[12] = in sucrose syrup, 2 h incubation
[13] = in sucrose syrup, 5 h incubation
[14] = in sucrose syrup, 24 h incubation
[15] = in tooth powder (aqueous extract), 2 h incubation
[16] = in tooth powder (aqueous extract), 5 h incubation
[17] = in tooth powder (aqueous extract), 24 h incubation
[18] = in toothpaste (aqueous extract), 2 h incubation
[19] = in toothpaste (aqueous extract), 5 h incubation
[20] = in toothpaste (aqueous extract), 24 h incubation

For `O=CCO` [Glycolaldehyde], the “Acid Production Inhibition” value (Streptococcus spp. KI-R [1]; [6]) was 0 Per Cent, the “Acid Production Inhibition” value (Streptococcus spp. KI-R [1]; [7]) was 0 Per Cent and the “Acid Production Inhibition” value (Streptococcus spp. KI-R [1]; [8]) was 73 Per Cent. For the same compound, the “Acid Production Inhibition” value (Streptococcus spp. KI-R [1]; [9]) was 57 Per Cent, the “Acid Production Inhibition” value (Streptococcus spp. KI-R [1]; [10]) was 81 Per Cent and the “Acid Production Inhibition” value (Streptococcus spp. KI-R [1]; [11]) was 77 Per Cent. For the same compound, the “Acid Production Inhibition” value (Streptococcus spp. KI-R [1]; in mouthwash, 2 h incubation) was 0 Per cent, the “Acid Production Inhibition” value (Streptococcus spp. KI-R [1]; in mouthwash, 5 h incubation) was 0 Per cent and the “Acid Production Inhibition” value (Streptococcus spp. KI-R [1]; in mouthwash, 24 h incubation) was 78 Per cent. The “Acid Production Inhibition” value (Streptococcus spp. KI-R [1]; [12]) was 19 Per cent, the “Acid Production Inhibition” value (Streptococcus spp. KI-R [1]; [13]) was 85 Per cent and the “Acid Production Inhibition” value (Streptococcus spp. KI-R [1]; [14]) was 84 Per cent. The “Acid Production Inhibition” value (Streptococcus spp. KI-R [1]; [15]) was 0 Per cent, the “Acid Production Inhibition” value (Streptococcus spp. KI-R [1]; [16]) was 0 Per cent and the “Acid Production Inhibition” value (Streptococcus spp. KI-R [1]; [17]) was 0 Per cent. For the same compound, the “Acid Production Inhibition” value (Streptococcus spp. KI-R [1]; [18]) was 0 Per cent, the “Acid Production Inhibition” value (Streptococcus spp. KI-R [1]; [19]) was 0 Per cent and the “Acid Production Inhibition” value (Streptococcus spp. KI-R [1]; [20]) was 0 Per cent. The “Acid Production Inhibition” value [2, 6] was 0 Per Cent, the “Acid Production Inhibition” value [2, 7] was 0 Per Cent and the “Acid Production Inhibition” value [2, 8] was 64 Per Cent. The “Acid Production Inhibition” value [2, 9] was 33 Per Cent, the “Acid Production Inhibition” value [2, 10] was 3 Per Cent and the “Acid Production Inhibition” value [2, 11] was 85 Per Cent. The “Acid Production Inhibition” value [2, 12] was 0 Per cent, the “Acid Production Inhibition” value [2, 13] was 0 Per cent and the “Acid Production Inhibition” value [2, 14] was 86 Per cent. The “Acid Production Inhibition” value [2, 15] was 0 Per cent, the “Acid Production Inhibition” value [2, 16] was 0 Per cent and the “Acid Production Inhibition” value [2, 17] was 73 Per cent. The “Acid Production Inhibition” value [2, 18] was 0 Per cent, the “Acid Production Inhibition” value [2, 19] was 0 Per cent and the “Acid Production Inhibition” value [2, 20] was 0 Per cent. For the same compound, the Acid Production Inhibition (oral microorganisms) was “excellent acid production inhibition”, the “Acid Production Inhibition” value (Lactobacillus casei; 0.02 percent) was 18% and the “Acid Production Inhibition” value (Lactobacillus casei; 0.025 percent) was 23%. For the same compound, the “Acid Production Inhibition” value (Lactobacillus casei; 0.03 percent) was 27%, the “Growth Inhibition” value (Streptococcus spp. KI-R [3]; [6]) was 99.9 Per Cent and the “Growth Inhibition” value (Streptococcus spp. KI-R [3]; [7]) was “N.S”. For the same compound, the “Growth Inhibition” value (Streptococcus spp. KI-R [3]; [8]) was “N.S”, the “Growth Inhibition” value (Streptococcus spp. KI-R [3]; [9]) was 99.1 Per Cent and the “Growth Inhibition” value (Streptococcus spp. KI-R [3]; [10]) was 100 Per Cent. The “Growth Inhibition” value (Streptococcus spp. KI-R [3]; [11]) was 100 Per Cent, the “Growth Inhibition” value (Streptococcus spp. KI-R [3]; in mouthwash, 2 h incubation) was 99.98 Per cent and the “Growth Inhibition” value (Streptococcus spp. KI-R [3]; in mouthwash, 5 h incubation) was 100 Per cent. The “Growth Inhibition” value (Streptococcus spp. KI-R [3]; in mouthwash, 24 h incubation) was 100 Per cent, the “Growth Inhibition” value (Streptococcus spp. KI-R [3]; [12]) was 80 Per cent and the “Growth Inhibition” value (Streptococcus spp. KI-R [3]; [13]) was greater than 99.9 Per cent. For the same compound, the “Growth Inhibition” value (Streptococcus spp. KI-R [3]; [14]) was greater than 99.99 Per cent, the “Growth Inhibition” value (Streptococcus spp. KI-R [3]; [15]) was “N.S” and the “Growth Inhibition” value (Streptococcus spp. KI-R [3]; [16]) was 93.3 Per cent. The “Growth Inhibition” value (Streptococcus spp. KI-R [3]; [17]) was 100 Per cent, the “Growth Inhibition” value (Streptococcus spp. KI-R [3]; [18]) was 0 Per cent and the “Growth Inhibition” value (Streptococcus spp. KI-R [3]; [19]) was “N.S”. The “Growth Inhibition” value (Streptococcus spp. KI-R [3]; [20]) was “N.S”, the “Growth Inhibition” value [4, 6] was “N.S” and the “Growth Inhibition” value [4, 7] was 97.3 Per Cent. The “Growth Inhibition” value [4, 8] was 100 Per Cent, the “Growth Inhibition” value [4, 9] was “N.S” and the “Growth Inhibition” value [4, 10] was 98 Per Cent. For the same compound, the “Growth Inhibition” value [4, 11] was 100 Per Cent, the “Growth Inhibition” value [4, 12] was “N.S” and the “Growth Inhibition” value [4, 13] was 93 Per cent. For the same compound, the “Growth Inhibition” value [4, 14] was greater than 99.99 Per cent, the “Growth Inhibition” value [4, 15] was “N.S” and the “Growth Inhibition” value [4, 16] was “N.S”. The “Growth Inhibition” value [4, 17] was 99.99 Per cent, the “Growth Inhibition” value [4, 18] was 0 Per cent and the “Growth Inhibition” value [4, 19] was “N.S”. For the same compound, the “Growth Inhibition” value [4, 20] was 100 Per cent, the “Growth Inhibition” value [5, 6] was 99.3 Per Cent and the “Growth Inhibition” value [5, 7] was 100 Per Cent. The “Growth Inhibition” value [5, 8] was 100 Per Cent, the “Growth Inhibition” value [5, 9] was 99 Per Cent and the “Growth Inhibition” value [5, 10] was 100 Per Cent. The “Growth Inhibition” value [5, 11] was 91.4 Per Cent, the “Growth Inhibition” value ([5]; in mouthwash, 2 h incubation) was 99.7 Per cent and the “Growth Inhibition” value ([5]; in mouthwash, 5 h incubation) was 100 Per cent. The “Growth Inhibition” value ([5]; in mouthwash, 24 h incubation) was 99.90 Per cent, the “Growth Inhibition” value [5, 12] was 98 Per cent and the “Growth Inhibition” value [5, 13] was greater than 99.99 Per cent. For the same compound, the “Growth Inhibition” value [5, 14] was greater than 99 Per cent, the “Growth Inhibition” value [5, 15] was “N.S” and the “Growth Inhibition” value [5, 16] was 99.97 Per cent. The “Growth Inhibition” value [5, 17] was 100 Per cent, the “Growth Inhibition” value [5, 18] was “N.S” and the “Growth Inhibition” value [5, 19] was “N.S”. For the same compound, the “Growth Inhibition” value [5, 20] was 100 Per cent.
